From ChEMBL document CHEMBL1201862, “PubChem BioAssay data set” (2004)
The source made the active and inactive calls.

Experiments:
[1] = test system: HeLa; test: viability loss in HeLa cells – cell-based, ATP luminescence, cherry-pick samples, cytotoxicity control, dose response (AID 687004); assay type: functional; settings: Homo sapiens
[2] = anti-trypanosomal activity in BESM host cells – imaging, CA-I/72 strain, bovine embryo skeletal muscle, dry powder, dose response (AID 651885); assay type: functional, cell-based
[3] = test system: CHO; test: CHO cell viability loss, potency – luminescence, cytotoxicity control for TLR9-MyD88 binding inhibitor project, dose response (AID 588339); assay type: functional, cell-based, hamster; settings: Cricetulus griseus;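 further: CHO cells stably coexpressing TLR9 and MyD88 fusions from primary screen; compound exposure lasted 48 hours before viability readout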
[4] = biological target: Beta-galactosidase (Escherichia coli, UniProt Q8VNN2); test: detection-enzyme interference by beta-gal modulators – biochemical, E. coli enzyme, set 3, artefact control for CCR6 antagonist project, dose response (AID 504712); assay type: functional
Chain of Beta-galactosidase (Q8VNN2 whole entry): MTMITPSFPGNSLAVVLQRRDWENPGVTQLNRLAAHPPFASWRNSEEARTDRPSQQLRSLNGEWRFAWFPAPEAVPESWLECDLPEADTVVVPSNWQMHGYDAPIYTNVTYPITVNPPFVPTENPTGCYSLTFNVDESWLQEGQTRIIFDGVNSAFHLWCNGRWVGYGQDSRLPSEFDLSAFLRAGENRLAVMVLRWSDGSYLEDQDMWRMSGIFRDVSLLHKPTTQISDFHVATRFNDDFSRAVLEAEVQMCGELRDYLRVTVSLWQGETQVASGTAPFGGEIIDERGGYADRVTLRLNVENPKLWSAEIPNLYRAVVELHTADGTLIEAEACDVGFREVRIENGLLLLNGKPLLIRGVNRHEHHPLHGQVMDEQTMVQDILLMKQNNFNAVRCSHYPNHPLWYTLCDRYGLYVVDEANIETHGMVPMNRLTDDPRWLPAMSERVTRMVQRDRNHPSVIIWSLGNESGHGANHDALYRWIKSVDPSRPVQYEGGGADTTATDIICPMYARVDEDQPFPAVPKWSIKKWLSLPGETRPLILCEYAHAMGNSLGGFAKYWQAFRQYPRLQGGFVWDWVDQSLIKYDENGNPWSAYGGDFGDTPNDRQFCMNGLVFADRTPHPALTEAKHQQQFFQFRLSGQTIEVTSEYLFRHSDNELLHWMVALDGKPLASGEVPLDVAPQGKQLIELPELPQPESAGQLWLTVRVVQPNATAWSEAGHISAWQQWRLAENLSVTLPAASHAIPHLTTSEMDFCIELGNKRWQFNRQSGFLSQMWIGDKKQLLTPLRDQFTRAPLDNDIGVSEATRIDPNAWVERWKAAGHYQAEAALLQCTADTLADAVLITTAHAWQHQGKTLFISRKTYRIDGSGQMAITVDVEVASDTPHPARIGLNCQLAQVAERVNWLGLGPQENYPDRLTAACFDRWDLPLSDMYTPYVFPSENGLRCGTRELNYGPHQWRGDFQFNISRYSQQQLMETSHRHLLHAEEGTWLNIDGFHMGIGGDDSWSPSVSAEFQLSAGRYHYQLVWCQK

[5] = test system: HEK293; test: cells; assay type: functional, cell-based; settings: Homo sapiens
[6] = non-specific 3'UTR reporter inhibition in Clone20-Shn3RL – cell-based, Renilla luciferase, cherry-picked, counter-screen for Shn3 inhibitor project, dose response (AID 624133); assay type: functional
[7] = test system: HEK293; test: inhibition of NOD1-driven NF-kB reporter – cell-based, luminescence, uHTS, primary screen (AID 1578); assay type: functional; settings: Homo sapiens
[8] = reduction of Shn3 3'UTR-driven luciferase in osteoblasts – cell-based, Clone20 osteoblasts, firefly luciferase, cherry-picked, dose response (AID 624132); assay type: functional;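 further: firefly luciferase luminescence from reporter carrying the Shn3 3'UTR in osteoblasts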
[9] = biological target: T1, Protein RecA (Mycobacterium tuberculosis, UniProt P9WHJ3); test: Fluorescence Cell-Free Homogeneous Dose Retest to Identify Inhibitors of RecA-Intein Splicing Activity. [Related pubchem assays (depositor defined):AID2097, AID2223, AID489010, AID492950]; assay type: functional
T1 sequence (P9WHJ3 whole entry): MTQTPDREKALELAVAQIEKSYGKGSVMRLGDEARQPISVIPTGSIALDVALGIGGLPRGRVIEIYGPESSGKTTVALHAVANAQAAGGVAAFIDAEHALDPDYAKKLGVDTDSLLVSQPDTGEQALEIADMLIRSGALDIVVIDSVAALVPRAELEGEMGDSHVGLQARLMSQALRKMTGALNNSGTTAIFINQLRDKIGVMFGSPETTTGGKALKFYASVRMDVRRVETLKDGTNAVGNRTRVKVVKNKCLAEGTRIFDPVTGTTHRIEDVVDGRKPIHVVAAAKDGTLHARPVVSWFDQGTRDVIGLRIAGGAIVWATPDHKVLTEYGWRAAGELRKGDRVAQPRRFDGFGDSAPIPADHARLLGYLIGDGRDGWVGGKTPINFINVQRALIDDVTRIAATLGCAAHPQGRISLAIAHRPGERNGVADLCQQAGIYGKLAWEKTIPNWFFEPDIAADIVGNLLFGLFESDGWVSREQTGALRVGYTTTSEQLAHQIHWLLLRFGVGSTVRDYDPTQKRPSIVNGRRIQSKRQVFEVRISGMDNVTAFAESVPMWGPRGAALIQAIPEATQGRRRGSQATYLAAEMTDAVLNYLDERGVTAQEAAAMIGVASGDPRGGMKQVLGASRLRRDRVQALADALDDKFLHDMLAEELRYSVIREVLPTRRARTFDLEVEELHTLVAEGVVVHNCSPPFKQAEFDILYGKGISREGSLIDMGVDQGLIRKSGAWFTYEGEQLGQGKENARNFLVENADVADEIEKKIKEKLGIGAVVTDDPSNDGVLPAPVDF

[10] = biological target: T2, Replicative DNA helicase DnaB (Mycobacterium tuberculosis, UniProt P9WMR3); test: DnaB intein splicing inhibitors, dose response, biochemical, cell-free fluorescence (AID 449749); assay type: functional
T2 sequence (P9WMR3 whole entry): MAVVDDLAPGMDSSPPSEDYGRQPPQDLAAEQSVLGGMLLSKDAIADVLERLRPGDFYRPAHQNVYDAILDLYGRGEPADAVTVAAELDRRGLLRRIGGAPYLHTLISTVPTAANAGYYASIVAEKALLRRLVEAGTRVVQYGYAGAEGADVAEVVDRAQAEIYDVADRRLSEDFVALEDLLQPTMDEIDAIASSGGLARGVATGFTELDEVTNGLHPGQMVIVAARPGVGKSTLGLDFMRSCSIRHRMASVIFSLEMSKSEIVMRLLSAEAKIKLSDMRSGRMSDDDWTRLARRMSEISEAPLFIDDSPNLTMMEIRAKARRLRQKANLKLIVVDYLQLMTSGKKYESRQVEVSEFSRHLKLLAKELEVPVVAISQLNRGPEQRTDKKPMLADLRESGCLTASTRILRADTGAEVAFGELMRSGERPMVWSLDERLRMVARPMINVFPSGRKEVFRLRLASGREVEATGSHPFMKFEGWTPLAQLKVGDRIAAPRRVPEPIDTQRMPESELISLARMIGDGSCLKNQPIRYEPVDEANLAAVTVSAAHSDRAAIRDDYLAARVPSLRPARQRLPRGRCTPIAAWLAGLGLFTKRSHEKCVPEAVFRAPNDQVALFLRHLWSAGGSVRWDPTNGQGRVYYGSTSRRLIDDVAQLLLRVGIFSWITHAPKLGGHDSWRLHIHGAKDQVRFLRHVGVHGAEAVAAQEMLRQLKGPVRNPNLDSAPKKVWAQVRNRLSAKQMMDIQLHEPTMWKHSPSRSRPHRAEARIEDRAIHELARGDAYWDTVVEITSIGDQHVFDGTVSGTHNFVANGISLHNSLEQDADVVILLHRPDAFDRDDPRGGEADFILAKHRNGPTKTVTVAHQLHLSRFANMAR

[11] = biological target: Nucleotide-binding oligomerization domain-containing protein 2 (Homo sapiens, UniProt Q9HC29); test: inhibition of NOD2-driven NF-kB reporter – cell-based, luminescence, uHTS, HEK293 (AID 1566); assay type: functional
Chain of Nucleotide-binding oligomerization domain-containing protein 2 (Q9HC29 whole entry, the tested form may be a part): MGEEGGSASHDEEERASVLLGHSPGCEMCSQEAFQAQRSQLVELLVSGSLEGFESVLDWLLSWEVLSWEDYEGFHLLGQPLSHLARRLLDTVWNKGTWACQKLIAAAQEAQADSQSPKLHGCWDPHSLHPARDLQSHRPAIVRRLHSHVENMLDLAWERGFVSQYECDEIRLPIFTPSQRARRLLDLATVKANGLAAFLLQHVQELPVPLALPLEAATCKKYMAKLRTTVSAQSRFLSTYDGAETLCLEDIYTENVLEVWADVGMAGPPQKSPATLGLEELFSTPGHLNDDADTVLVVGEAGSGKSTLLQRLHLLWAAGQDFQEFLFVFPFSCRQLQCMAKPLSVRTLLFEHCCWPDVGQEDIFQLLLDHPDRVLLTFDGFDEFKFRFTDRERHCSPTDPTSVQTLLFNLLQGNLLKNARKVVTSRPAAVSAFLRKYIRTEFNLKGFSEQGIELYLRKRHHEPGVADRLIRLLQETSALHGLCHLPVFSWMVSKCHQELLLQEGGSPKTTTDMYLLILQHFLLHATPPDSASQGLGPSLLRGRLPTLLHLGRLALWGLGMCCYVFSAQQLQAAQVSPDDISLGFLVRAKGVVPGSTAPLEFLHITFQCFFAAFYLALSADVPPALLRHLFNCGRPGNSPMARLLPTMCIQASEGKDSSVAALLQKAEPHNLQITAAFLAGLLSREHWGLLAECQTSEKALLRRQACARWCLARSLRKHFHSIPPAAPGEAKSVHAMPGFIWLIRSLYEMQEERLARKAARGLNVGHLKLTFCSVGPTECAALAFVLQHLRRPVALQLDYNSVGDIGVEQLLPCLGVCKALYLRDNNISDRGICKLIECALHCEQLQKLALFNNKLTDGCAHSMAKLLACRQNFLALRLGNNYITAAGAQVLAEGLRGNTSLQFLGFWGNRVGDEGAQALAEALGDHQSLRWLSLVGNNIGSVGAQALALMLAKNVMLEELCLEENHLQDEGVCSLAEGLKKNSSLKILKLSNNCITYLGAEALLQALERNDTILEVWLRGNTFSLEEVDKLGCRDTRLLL

[12] = test system: HEK293; test: NOD2 signaling inhibitors in MDP-stimulated cells, cell-based, uHTS, luminescence (AID 2001); assay type: functional; settings: Homo sapiens
[13] = loss of viability in HepG2 cells – cell-based, CellTiter-Glo, cherry-picked, cytotoxicity control for Shn3 inhibitor project, dose response (AID 624134); assay type: functional
[14] = Luminescence Cell-Based Dose Retest to Confirm Inhibitors of Cancer Stem Cells. [Related pubchem assays (depositor defined):AID2717, AID2721]; assay type: functional; settings: Homo sapiens
[15] = biological target: ATP-binding cassette sub-family B member 6 (Homo sapiens, UniProt Q9NP58); test: ABCB6 transporter inhibitors, porphyrin accumulation, dose response, flow cytometry, K562-ABCB6 cells, cherry pick 02 (AID 624487); assay type: functional; settings: read-out: EC50_MICROM
Chain of ATP-binding cassette sub-family B member 6 (Q9NP58 whole entry): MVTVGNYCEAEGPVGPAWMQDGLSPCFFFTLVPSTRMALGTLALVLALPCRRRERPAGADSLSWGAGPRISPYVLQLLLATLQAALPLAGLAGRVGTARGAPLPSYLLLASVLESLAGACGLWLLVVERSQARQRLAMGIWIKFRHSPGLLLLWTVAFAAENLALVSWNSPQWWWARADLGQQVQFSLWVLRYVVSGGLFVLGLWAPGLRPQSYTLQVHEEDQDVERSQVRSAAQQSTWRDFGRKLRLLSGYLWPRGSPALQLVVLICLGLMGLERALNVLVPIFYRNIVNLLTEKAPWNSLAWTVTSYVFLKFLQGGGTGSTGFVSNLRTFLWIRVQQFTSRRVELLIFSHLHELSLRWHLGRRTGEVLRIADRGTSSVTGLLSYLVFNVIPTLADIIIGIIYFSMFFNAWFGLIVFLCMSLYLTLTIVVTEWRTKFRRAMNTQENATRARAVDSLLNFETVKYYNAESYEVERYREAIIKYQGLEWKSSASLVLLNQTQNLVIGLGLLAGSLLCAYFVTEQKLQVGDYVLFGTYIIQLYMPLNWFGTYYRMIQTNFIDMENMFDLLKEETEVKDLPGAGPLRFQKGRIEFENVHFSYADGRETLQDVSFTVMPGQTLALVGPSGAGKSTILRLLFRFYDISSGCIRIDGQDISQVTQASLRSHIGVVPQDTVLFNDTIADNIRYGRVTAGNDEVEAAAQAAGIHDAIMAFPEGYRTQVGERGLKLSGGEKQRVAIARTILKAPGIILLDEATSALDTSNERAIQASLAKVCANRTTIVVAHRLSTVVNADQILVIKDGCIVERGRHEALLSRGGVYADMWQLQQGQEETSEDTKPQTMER

[16] = biological target: Heat shock protein HSP 90-alpha (Homo sapiens, UniProt P07900); assay type: functional, organism-based
[17] = biological target: Apelin receptor (Homo sapiens, UniProt P35414); test: apelin receptor antagonists, arrestin read-out – cell-based, luminescent, enzyme-fragment complementation, selectivity assay for CCR6 antagonist project, SAR follow-up (AID 588359); assay type: functional
Chain of Apelin receptor (P35414 whole entry, the tested form may be a part): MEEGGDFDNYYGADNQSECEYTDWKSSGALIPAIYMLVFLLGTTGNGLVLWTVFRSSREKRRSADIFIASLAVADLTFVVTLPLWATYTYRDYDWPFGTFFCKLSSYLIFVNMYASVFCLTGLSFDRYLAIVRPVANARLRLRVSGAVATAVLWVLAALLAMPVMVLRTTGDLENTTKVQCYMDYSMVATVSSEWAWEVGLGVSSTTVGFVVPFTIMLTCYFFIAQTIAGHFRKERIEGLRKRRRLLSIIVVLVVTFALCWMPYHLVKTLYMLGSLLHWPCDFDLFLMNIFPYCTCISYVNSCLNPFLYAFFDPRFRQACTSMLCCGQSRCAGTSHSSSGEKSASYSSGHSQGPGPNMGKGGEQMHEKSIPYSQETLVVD

[18] = biological target: Beta Lactamase (Pseudomonas aeruginosa, UniProt Q932Y6); test: BLA reporter interference, concentration series – BLA reporter cells, FRET fluorescence, artefact control for TLR9-MyD88 binding inhibitor project, dose response (AID 588341); assay type: cell-based;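 further: cell based assay in CHO-K1 cells stably expressing beta-lactamase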
Chain of Beta Lactamase (Q932Y6 whole entry): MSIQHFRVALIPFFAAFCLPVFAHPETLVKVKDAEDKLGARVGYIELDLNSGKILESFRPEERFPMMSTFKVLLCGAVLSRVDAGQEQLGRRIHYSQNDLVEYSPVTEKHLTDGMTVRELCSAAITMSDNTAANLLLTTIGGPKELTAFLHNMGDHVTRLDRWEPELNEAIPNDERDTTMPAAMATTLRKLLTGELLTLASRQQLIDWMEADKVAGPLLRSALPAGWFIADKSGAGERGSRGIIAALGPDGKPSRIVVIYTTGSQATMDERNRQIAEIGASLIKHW

[19] = test system: A549; test: viability loss in A549 cells – cell-based, plate reader, cherry-pick samples, cytotoxicity control, dose response (AID 687028); assay type: functional; settings: Homo sapiens

CC(C)NC(=O)Nc1ccc2c(c1)CC(=O)N([C@@H](C)CO)C[C@@H](C)[C@@H](CN(C)Cc1ccc(Oc3ccccc3)cc1)O2
AC50 [1]: 38.8 µM (active)

CC(C)N(C)C(=O)c1cccc(NC(=O)c2ccncc2)c1OCCCN(C)Cc1ccc(Cl)cc1
IC50 [2]: 0.385 µM (active)

Cc1ccccc1CS(=O)(=O)c1ncc(Cl)c(C(=O)Nc2ccc(F)cc2)n1
IC50 [3]: 4.01 µM (active)
IC50 [4]: > 66.6 µM (inactive)
IC50 [5]: > 20 µM (inactive)
AC50 [6]: 11.5 µM (active)
EC50 [7]: 8.92 µM (active)
AC50 [8]: 3 µM (active)
EC50 [9]: 2.79 µM (active)
AC50 [10]: 1.22 µM (active)
EC50 [11]: > 20 µM (inactive)
IC50 [12]: 10 µM (inactive)
AC50 [13]: 40.4 µM (active)
AC50 [14]: 2.2 µM (active)
EC50 [15]: 30.5 µM (active)
AC50 [16]: 2.41 µM (active)
IC50 [17]: 19.7 µM (active)
IC50 [18]: 6.25 µM (active)

Cc1ccc(S(=O)(=O)N(C)C[C@@H]2OCCCC[C@H](C)Oc3ccc(NS(=O)(=O)c4c(C)noc4C)cc3C(=O)N([C@H](C)CO)C[C@@H]2C)cc1
AC50 [19]: 25.1 µM (active)
